Measurements from patent publication EP1147083B1, “ARYLPIPERAZINYL-CYCLOHEXYL INDOLE DERIVATIVES FOR THE TREATMENT OF DEPRESSION” (Wyeth, priority 1999, dated 2000).
Like-named read-outs stand apart in the source and are kept apart here.

Legend:
[1] = target: T1, serotonin transporter (Rattus norvegicus, UniProt P31652); test: Serotonin transporter affinity, 3H-paroxetine binding to frontal cortical membranes; design: species or system male Sprague-Dawley rats
T1 construct: from tissue; host or cells: frontal cortex of male Sprague-Dawley rats
T1 sequence (P31652 whole entry): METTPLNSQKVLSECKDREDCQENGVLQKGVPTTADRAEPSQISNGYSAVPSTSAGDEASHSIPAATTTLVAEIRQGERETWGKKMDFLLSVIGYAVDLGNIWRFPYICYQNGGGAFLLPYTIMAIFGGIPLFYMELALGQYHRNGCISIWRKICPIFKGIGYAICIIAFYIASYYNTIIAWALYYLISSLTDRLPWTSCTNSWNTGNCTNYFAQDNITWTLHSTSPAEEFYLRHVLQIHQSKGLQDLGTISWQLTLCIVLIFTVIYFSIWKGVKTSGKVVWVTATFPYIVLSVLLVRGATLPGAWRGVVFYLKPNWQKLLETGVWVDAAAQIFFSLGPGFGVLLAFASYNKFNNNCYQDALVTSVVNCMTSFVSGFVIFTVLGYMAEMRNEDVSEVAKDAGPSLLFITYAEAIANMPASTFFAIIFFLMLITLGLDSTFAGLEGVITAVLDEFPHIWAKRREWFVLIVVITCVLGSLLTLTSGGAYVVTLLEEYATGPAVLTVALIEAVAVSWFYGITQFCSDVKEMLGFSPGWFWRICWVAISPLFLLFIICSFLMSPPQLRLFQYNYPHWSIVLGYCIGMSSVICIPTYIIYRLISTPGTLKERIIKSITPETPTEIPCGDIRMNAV
Experimental: Briefly, frontal cortical membranes prepared from male Sprague-Dawley rats were incubated with ^3H-paroxetine (0.1 nM) for 60 minutes at 25°C. […] All reactions are terminated by the addition of ice cold Tris buffer followed by rapid filtration using a Tom Tech filtration device to separate bound from free ^3H-paroxetine.

[2] = target: T2, 5-HT1A cloned receptor membrane fragments (Homo sapiens, UniProt P08908); test: [35S]-GTPγS binding assay; format: biochemical; conditions: value in brackets, or a lone % in the cell; maximum agonist response defined by excess 8-OH-DPAT; read-out: GTPγS (%EMax)
T2 construct: expressed in transfected cells
T2 sequence (P08908 1-422): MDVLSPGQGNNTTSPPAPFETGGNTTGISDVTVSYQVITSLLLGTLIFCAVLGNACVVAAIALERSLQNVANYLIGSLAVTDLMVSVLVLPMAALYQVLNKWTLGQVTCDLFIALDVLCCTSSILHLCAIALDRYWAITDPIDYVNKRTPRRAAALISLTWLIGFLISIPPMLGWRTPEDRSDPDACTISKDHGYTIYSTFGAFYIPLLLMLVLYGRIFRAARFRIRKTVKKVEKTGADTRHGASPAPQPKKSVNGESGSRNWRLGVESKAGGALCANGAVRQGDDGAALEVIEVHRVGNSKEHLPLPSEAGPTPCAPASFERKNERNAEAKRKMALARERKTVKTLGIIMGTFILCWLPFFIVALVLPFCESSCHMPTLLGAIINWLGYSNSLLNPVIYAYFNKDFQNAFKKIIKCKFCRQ
Experimental: The [^35S]-GTPγS binding assay was similar to that used by Lazareno and Birdsall, Br. J. Pharmacol. 109:1120 (1993). Briefly, 5-HT1A cloned receptor membrane fragments (as used for 5-HT1A receptor binding assays) were stored at -70°C until needed. When needed, membranes were rapidly thawed, centrifuged at 40,000 x g for 10 minutes and resuspended at 4 °C for 10 minutes in assay buffer (25 mM HEPES, 3 mM MgCl2, 100 mM NaCl, 1 mM EDTA, 10 uM GDP, […], pH 8.0). These membranes were then incubated for 30 minutes at 30°C with [^35S]GTPgS (1 nM) in the presence of vehicle, test compound (one to eight concentrations), or excess 8-OH-DPAT to define maximum agonist response. All reactions are terminated by the addition of ice cold Tris buffer followed by rapid filtration using a Tom Tech® filtration device to separate bound from free [^35S]GTPgS. Agonists produce an increase in the amount of [^35S]GTPgS bound whereas antagonists produce no increase in binding. Bound radioactivity was counted and analyzed as above.

[3] = target: T3, human 5-HT1A receptor subtype (Homo sapiens, UniProt P08908); test: 5-HT1A receptor binding assay with [3H]8-OH-DPAT on CHO cell membranes; conditions: [3H]8-OH-DPAT 1.5 nM
T3 construct: expressed in transfected cells
T3 sequence (P08908 1-422): T2 sequence (P08908 1-422)
Experimental: (§1) The PCR cloning of the human 5-HT1A receptor subtype from a human genomic library has been described previously Chanda et al., Mol. Pharmacol., 43:516 (1993). A stable Chinese hamster ovary cell line expressing the human 5-HT1A receptor subtype (5-HT1A.CHO cells) was employed throughout this study. Cells were maintained in DMEM supplemented with 10% foetal calf serum, non-essential amino acids and penicillin/ streptomycin.
Cells were grown to 95-100% confluency as a monolayer before membranes were harvested for binding studies. Cells were gently scraped from the culture plates, transferred to centrifuge tubes, and washed twice by centrifugation (2000 rpm for 10 min., 4°C) in buffer (50 mM Tris; pH 7.5). The resulting pellets were aliquoted and placed at -80°C. On the day of assay, the cells were thawed on ice, and resuspended in buffer. Studies were conducted using [^3H]8-OH-DPAT as the radioligand. The binding assay was performed in 96 well microtiter plates in a final total volume of 250 µL of buffer. Competition experiments were performed by using 7 concentrations of unlabelled drug and a final ligand concentration of 1.5 nM. Nonspecific binding was determined in the presence of 10 µM 5HT. Saturation analysis was conducted by using [^3H]8-OH-DPAT at concentrations ranging from 0.3-30 nM. Following a 30 minute incubation at room temperature, the reaction was terminated by the addition of ice cold buffer and rapid filtration using a M-96 Brandel Cell Harvester (Gaithersburg, MD) through a GF/B filter presoaked for 30 minutes in 0.5% polyethyleneimine.

[4] = target: T4, human 5-HT1A receptor subtype (5-HT1A.CHO cells) (Homo sapiens, UniProt P08908); test: cAMP formation in forskolin-treated cells (cAMP SPA assay); format: cell-based; conditions: value in brackets; forskolin 1 uM
T4 construct: expressed in transfected cells
T4 sequence (P08908 1-422): T2 sequence (P08908 1-422)
Experimental: as §1
The following assays were performed by incubating the cells with DMEM containing 25 mM HEPES, 5 mM theophylline and 10 µM pargyline for a period of 20 minutes at 37°C. Functional activity was assessed by treating the cells with forskolin (1 uM final concentration) followed immediately by test compound (6 concentrations) for an additional 10 minutes at 37°C. In separate experiments, 6 concentrations of antagonist were preincubated for 20 minutes prior to the addition of 10 nM 8-OH-DPAT and forskolin. The reaction was terminated by removal of the media and addition of 0.5 ml ice cold assay buffer. Plates were stored at -20°C prior to assessment of cAMP formation by a cAMP SPA assay (Amersham).

[5] = 3H-paroxetine 0.1 nM, rat frontal cortical membranes, read-out: ST (Kj, nM,)

SMILES | Ki [1, 5] [nM] | Emax [2] [%] | Ki [3] [µM] | Emax [4] [%] | Ki [1] [nM]
Clc1ccc2[nH]cc([C@H]3CC[C@@H](N4CCN(c5cccc6[nH]ccc56)CC4)CC3)c2c1 [Example 6a, 5-Chloro-3-[cis-4-[4-(1H-indol-4-yl)-1-piperazinyl]cyclohexyl]-1H-indole] | 28 | 53 | 0.326 | 80 | 
Cn1ccc2c(N3CCN([C@H]4CC[C@@H](c5cn(C)c6cc(F)ccc65)CC4)CC3)cccc21 [Example 11, 6-Fluoro-1-methyl-3-{cis-4-[4-(1-methyl-1H-indol-4-yl)-1-piperazinyl]cyclohexyl}-1H-indole] | 40 |  |  |  | 
COc1ccccc1N1CCN([C@H]2CC[C@@H](c3c[nH]c4ccc(F)cc43)CC2)CC1 [Example 18, 5-Fluoro-3-{(cis)-4-[4-(2-methoxy-phenyl)-piperazin-1-yl] -cyclohexyl}-1H-indole] | 1.36 |  | 0.129 |  | 
COc1ccc(F)cc1N1CCN([C@H]2CC[C@@H](c3c[nH]c4ccc(F)cc43)CC2)CC1 [Example 22a, 5-Fluoro-3-{(cis)-4-[4-(5-fluoro-2-methoxy-phenyl)-piperazin-1-yl]-cyclohexyl}-1H-indole] | 4.96 | 0 | 0.0807 | 0 | 
COc1ccc(F)cc1N1CCN([C@H]2CC[C@H](c3c[nH]c4ccc(F)cc43)CC2)CC1 [Example 22b, 5-Fluoro-3-{(trans)-4-[4-(5-fluoro-2-methoxy-phenyl)-piperazin-1-yl]-cyclohexyl}-1H-indole] | 36.5 | 4.5 | 0.0116 | 0 | 
Fc1cc2c(c(N3CCN([C@H]4CC[C@@H](c5c[nH]c6ccc(F)cc65)CC4)CC3)c1)OCCC2 [Example 31a, 5-Fluoro-3-{(1,4-cis)-4-[4-(6-fluoro-chroman-8-yl)-piperazin-1-yl]-cyclohexyl}-1H-indole] |  |  | 0.142 |  | 13
COc1ccccc1N1CCN(C2CC=C(c3c[nH]c4ccc(F)cc34)CC2)CC1 (stereo not drawn) [Example 35, 5-Fluoro-3-{4-[4-(2-methoxy-phenyl)-piperazin-1-yl]cyclohex-1-enyl}-1H-indole] | 91 |  | 0.0701 |  | 
N#Cc1ccc2[nH]cc(C3=CCC(N4CCN(c5cccc6[nH]ccc56)CC4)CC3)c2c1 (stereo not drawn) [Example 36, 3-{4-[4-(1H-Indol-4-yl)-piperazin-1-yl]-cyclohex-1-enyl}-1H-indole-5-carbonitrile] | 28 | 53 | 0.0123 | 80 | 
Cn1cc([C@H]2CC[C@@H](N3CCN(c4cccc5[nH]ccc45)CC3)CC2)c2cc(F)ccc21 [Example 38, 5-Fluoro-3-{cis-4-[4-(1H-indol-4-yl)-piperazinyl]-cyclohexyl}-1-methyl-1H-indole] |  |  |  |  | 7.22
